Activity calls are given as the source filed them. The rule behind the calls is not given here.
What was measured:
[1] = test system: HOS-TE85; assay: Induction of apoptosis in human MNNG cells assessed as late apoptotic cells at 2.5 uM measured after 48 hrs by Alexa Fluor 488 Annexin V/propidium iodide staining based flow cytometry (reference value: 0.51%); assay type: functional
[2] = test system: HOS-TE85; assay: Induction of reactive oxygen species generation in human MNNG cells at 5 to 10 uM measured after 3 hrs in presence of dicoumarol by DCFH-DA probe based fluorescence assay; assay type: functional, cell-based; conditions: dose 5-10 µM
[3] = test system: HOS-TE85; assay: Cell cycle arrest in human MNNG cells assessed as accumulation of cells at G2/M phase at 5 uM measured after 24 hrs by propidium iodide staining based flow cytometry (reference value: 39.4%); assay type: functional
[4] = test system: HOS-TE85; assay: Induction of apoptosis in human MNNG cells assessed as viable cells at 5 uM measured after 48 hrs by Alexa Fluor 488 Annexin V/propidium iodide staining based flow cytometry (reference value: 98.8%); assay type: functional; conditions: read-out: Activity
[5] = test system: HOS-TE85; assay: Cell cycle arrest in human MNNG cells assessed as accumulation of cells at G2/M phase at 2.5 uM measured after 24 hrs by propidium iodide staining based flow cytometry (reference value: 39.4%); assay type: functional
[6] = test system: HOS-TE85; assay: Cell cycle arrest in human MNNG cells assessed as accumulation of cells at G0/G1 phase at 5 uM measured after 24 hrs by propidium iodide staining based flow cytometry (reference value: 51.4%); assay type: functional
[7] = Toxicity in human MNNG cell xenografted Balb/c mouse assessed as effect on lung at 15 to 45 mg/kg, iv administered every 2 days for 3 weeks and measured post last dose by H and E staining based microscopy; assay type: organism-based; conditions: in vivo, 504 h, dose 15-45 mg/kg, time 21 day
[8] = test system: HOS-TE85; assay: Induction of apoptosis in human MNNG cells assessed as necrotic cells at 2.5 uM measured after 48 hrs by Alexa Fluor 488 Annexin V/propidium iodide staining based flow cytometry (reference value: 0.04%); assay type: functional
[9] = test system: HOS-TE85; assay: Cytotoxicity against human MNNG cells assessed as cell growth inhibition at 1 uM measured after 72 hrs by MTT assay relative to control; assay type: functional; conditions: read-out: GI
[10] = test system: HOS-TE85; assay: Induction of apoptosis in human MNNG cells assessed as late apoptotic cells at 10 uM measured after 48 hrs by Alexa Fluor 488 Annexin V/propidium iodide staining based flow cytometry (reference value: 0.51%); assay type: functional
[11] = test system: HOS-TE85; assay: Induction of apoptosis in human MNNG cells assessed as late apoptotic cells at 1 uM measured after 48 hrs by Alexa Fluor 488 Annexin V/propidium iodide staining based flow cytometry (reference value: 0.51%); assay type: functional
[12] = test system: HOS-TE85; assay: Cell cycle arrest in human MNNG cells assessed as accumulation of cells at G0/G1 phase at 2.5 uM measured after 24 hrs by propidium iodide staining based flow cytometry (reference value: 51.4%); assay type: functional
[13] = test system: HOS-TE85; assay: Induction of apoptosis in human MNNG cells assessed as necrotic cells at 10 uM measured after 48 hrs by Alexa Fluor 488 Annexin V/propidium iodide staining based flow cytometry (reference value: 0.04%); assay type: functional
[14] = Toxicity in human MNNG cell xenografted Balb/c mouse assessed as effect on kidney at 15 to 45 mg/kg, iv administered every 2 days for 3 weeks and measured post last dose by H and E staining based microscopy; assay type: organism-based; conditions: in vivo, 504 h, dose 15-45 mg/kg, time 21 day
[15] = test system: HOS-TE85; assay: Antitumor activity against iv dosed human MNNG cells xenografted in Balb/c mouse assessed as reduction in tumor cell proliferation administered every 2 days for 3 weeks and measured post last dose by Ki-67 staining based assay; assay type: functional, organism-based; conditions: dose 15-45 mg/kg, time 21.0 day
[16] = test system: HOS-TE85; assay: Induction of apoptosis in human MNNG cells assessed as late apoptotic cells at 5 uM measured after 48 hrs by Alexa Fluor 488 Annexin V/propidium iodide staining based flow cytometry (reference value: 0.51%); assay type: functional
[17] = test system: HOS-TE85; assay: Induction of apoptosis in human MNNG cells assessed as early apoptotic cells at 1 uM measured after 48 hrs by Alexa Fluor 488 Annexin V/propidium iodide staining based flow cytometry (reference value: 0.69%); assay type: functional
[18] = test system: HOS-TE85; assay: Antitumor activity against human MNNG cells xenografted in Balb/c mouse assessed as reduction in number of live cells in tumor at 15 to 45 mg/kg, iv administered every 2 days for 3 weeks and measured post last dose by H and E staining based microscopy; assay type: functional, organism-based; conditions: dose 15-45 mg/kg, time 21.0 day
[19] = test system: HOS-TE85; assay: Cell cycle arrest in human MNNG cells assessed as accumulation of cells at G0/G1 phase at 10 uM measured after 24 hrs by propidium iodide staining based flow cytometry (reference value: 51.4%); assay type: functional
[20] = test system: HOS-TE85; assay: Antitumor activity against human MNNG cells xenografted in Balb/c mouse assessed as tumor growth inhibition at 15 mg/kg, iv administered every 2 days for 3 weeks and measured daily during compound dosing relative to control; assay type: functional; conditions: HOS-TE85, 504 h, time 21 day, read-out: TGI
[21] = test system: HOS-TE85; assay: Antitumor activity against iv dosed human MNNG cells xenografted in Balb/c mouse assessed as increase in apoptotic cells administered every 2 days for 3 weeks and measured post last dose by TUNEL staining based assay; assay type: functional, organism-based; conditions: dose 15-45 mg/kg, time 21.0 day
[22] = test system: HOS-TE85; assay: Induction of apoptosis in human MNNG cells assessed as early apoptotic cells at 2.5 uM measured after 48 hrs by Alexa Fluor 488 Annexin V/propidium iodide staining based flow cytometry (reference value: 0.69%); assay type: functional
[23] = test system: HOS-TE85; assay: Cell cycle arrest in human MNNG cells assessed as accumulation of cells at G2/M phase at 1 uM measured after 24 hrs by propidium iodide staining based flow cytometry (reference value: 39.4%); assay type: functional
[24] = Toxicity in human MNNG cell xenografted Balb/c mouse assessed as effect on spleen at 15 to 45 mg/kg, iv administered every 2 days for 3 weeks and measured post last dose by H and E staining based microscopy; assay type: organism-based; conditions: in vivo, 504 h, dose 15-45 mg/kg, time 21 day
[25] = test system: HOS-TE85; assay: Induction of apoptosis in human MNNG cells assessed as necrotic cells at 5 uM measured after 48 hrs by Alexa Fluor 488 Annexin V/propidium iodide staining based flow cytometry (reference value: 0.04%); assay type: functional
[26] = test system: HOS-TE85; assay: Cell cycle arrest in human MNNG cells assessed as accumulation of cells at S phase at 10 uM measured after 24 hrs by propidium iodide staining based flow cytometry (reference value: 39.4%); assay type: functional
[27] = test system: HOS-TE85; assay: Cell cycle arrest in human MNNG cells assessed as accumulation of cells at G0/G1 phase at 1 uM measured after 24 hrs by propidium iodide staining based flow cytometry (reference value: 51.4%); assay type: functional
[28] = test system: HOS-TE85; assay: Induction of apoptosis in human MNNG cells assessed as viable cells at 1 uM measured after 48 hrs by Alexa Fluor 488 Annexin V/propidium iodide staining based flow cytometry (reference value: 98.8%); assay type: functional; conditions: read-out: Activity
[29] = Toxicity in human MNNG cell xenografted Balb/c mouse assessed as body weight loss at 15 to 45 mg/kg, iv administered every 2 days for 3 weeks and measured every other day during compound dosing; assay type: organism-based; conditions: in vivo, 504 h, dose 15-45 mg/kg, time 21 day
[30] = test system: HOS-TE85; assay: Antitumor activity against human MNNG cells xenografted in Balb/c mouse assessed as tumor growth inhibition at 45 mg/kg, iv administered every 2 days for 3 weeks and measured daily during compound dosing relative to control; assay type: functional; conditions: HOS-TE85, 504 h, time 21 day, read-out: TGI
[31] = test system: HOS-TE85; assay: Antitumor activity against human MNNG cells xenografted in Balb/c mouse assessed as tumor growth inhibition at 30 mg/kg, iv administered every 2 days for 3 weeks and measured daily during compound dosing relative to control; assay type: functional; conditions: HOS-TE85, 504 h, time 21 day, read-out: TGI
[32] = test system: HOS-TE85; assay: Induction of apoptosis in human MNNG cells assessed as early apoptotic cells at 5 uM measured after 48 hrs by Alexa Fluor 488 Annexin V/propidium iodide staining based flow cytometry (reference value: 0.69%); assay type: functional
[33] = test system: HOS-TE85; assay: Cell cycle arrest in human MNNG cells assessed as accumulation of cells at G2/M phase at 10 uM measured after 24 hrs by propidium iodide staining based flow cytometry (reference value: 39.4%); assay type: functional
[34] = Toxicity in human MNNG cell xenografted Balb/c mouse assessed as reduction in Cr level at 15 to 45 mg/kg, iv administered every 2 days for 3 weeks and measured post last dose; assay type: organism-based; conditions: in vivo, 504 h, dose 15-45 mg/kg, time 21 day
[35] = test system: HOS-TE85; assay: Induction of reactive oxygen species generation in human MNNG cells measured after 3 hrs by DCFH-DA probe based fluorescence assay; assay type: functional, cell-based; conditions: dose 1-10 µM
[36] = test system: HOS-TE85; assay: Cell cycle arrest in human MNNG cells assessed as accumulation of cells at S phase at 2.5 uM measured after 24 hrs by propidium iodide staining based flow cytometry (reference value: 39.4%); assay type: functional
[37] = Toxicity in human MNNG cell xenografted Balb/c mouse assessed as effect on liver at 15 to 45 mg/kg, iv administered every 2 days for 3 weeks and measured post last dose by H and E staining based microscopy; assay type: organism-based; conditions: in vivo, 504 h, dose 15-45 mg/kg, time 21 day
[38] = test system: HOS-TE85; assay: Cell cycle arrest in human MNNG cells assessed as accumulation of cells at S phase at 1 uM measured after 24 hrs by propidium iodide staining based flow cytometry (reference value: 39.4%); assay type: functional
[39] = test system: HOS-TE85; assay: Induction of apoptosis in human MNNG cells assessed as viable cells at 10 uM measured after 48 hrs by Alexa Fluor 488 Annexin V/propidium iodide staining based flow cytometry (reference value: 98.8%); assay type: functional; conditions: read-out: Activity
[40] = Toxicity in human MNNG cell xenografted Balb/c mouse assessed as effect on heart at 15 to 45 mg/kg, iv administered every 2 days for 3 weeks and measured post last dose by H and E staining based microscopy; assay type: organism-based; conditions: in vivo, 504 h, dose 15-45 mg/kg, time 21 day
[41] = test system: HOS-TE85; assay: Induction of apoptosis in human MNNG cells assessed as viable cells at 2.5 uM measured after 48 hrs by Alexa Fluor 488 Annexin V/propidium iodide staining based flow cytometry (reference value: 98.8%); assay type: functional; conditions: read-out: Activity
[42] = test system: HOS-TE85; assay: Induction of apoptosis in human MNNG cells assessed as early apoptotic cells at 10 uM measured after 48 hrs by Alexa Fluor 488 Annexin V/propidium iodide staining based flow cytometry (reference value: 0.69%); assay type: functional
[43] = test system: HOS-TE85; assay: Induction of apoptosis in human MNNG cells assessed as necrotic cells at 1 uM measured after 48 hrs by Alexa Fluor 488 Annexin V/propidium iodide staining based flow cytometry (reference value: 0.04%); assay type: functional
[44] = test system: HOS-TE85; assay: Cytotoxicity against human MNNG cells assessed as cell growth inhibition measured after 72 hrs by MTT assay; assay type: functional, cell-based; conditions: HOS-TE85, 72 h
[45] = Toxicity in human MNNG cell xenografted Balb/c mouse assessed as mortality at 15 to 45 mg/kg, iv administered every 2 days for 3 weeks and measured every other day during compound dosing; assay type: organism-based; conditions: in vivo, 504 h, dose 15-45 mg/kg, time 21 day
[46] = test system: HOS-TE85; assay: Cell cycle arrest in human MNNG cells assessed as accumulation of cells at S phase at 5 uM measured after 24 hrs by propidium iodide staining based flow cytometry (reference value: 39.4%); assay type: functional
[47] = Cytotoxicity against HUVEC assessed as cell growth inhibition measured after 72 hrs by MTT assay; assay type: toxicity, cell-based; conditions: human, HUVEC cells
[48] = Toxicity in human MNNG cell xenografted Balb/c mouse assessed as reduction in AST level at 15 to 45 mg/kg, iv administered every 2 days for 3 weeks and measured post last dose; assay type: organism-based; conditions: in vivo, 504 h, dose 15-45 mg/kg, time 21 day
[49] = test system: HOS-TE85; assay: Cytotoxicity against human MNNG cells assessed as cell growth inhibition at 10 uM measured after 72 hrs by MTT assay relative to control; assay type: functional; conditions: read-out: GI
[50] = Selectivity index, ratio of IC50 for cytotoxicity against HUVEC to IC50 for cytotoxicity against human MNNG cells; assay type: toxicity, cell-based; conditions: HUVEC and human MNNG cells, read-out: Ratio IC50

Cc1cc2c(cc1C)-c1oc(CN3CCOCC3)c(C)c1C(=O)C2=O
Activity [1]: 15.2%
Activity [2]: inactive
Activity [3]: 6.3%
viability at 5 µM [4]: 69%
Activity [5]: 9.2%
Activity [6]: 55.9%
Activity [7]: Non-toxic
Activity [8]: 0.55%
inhibition of growth at 1 µM [9]: 38.2%
Activity [10]: 17.7%
Activity [11]: 6.97%
Activity [12]: 53%
Activity [13]: 0.42%
Activity [14]: Non-toxic
Activity [15]: Active
Activity [16]: 12.8%
Activity [17]: 3.34%
Activity [18]: Active
Activity [19]: 63.7%
inhibition in vivo at 15 mg/kg [20]: 48.2%
Activity [21]: Dose-dependent-effect
Activity [22]: 10.6%
Activity [23]: 9.2%
Activity [24]: Non-toxic
Activity [25]: 0.08%
Activity [26]: 26.1%
Activity [27]: 49.7%
viability at 1 µM [28]: 89.3%
Activity [29]: Non-toxic
inhibition in vivo at 45 mg/kg [30]: 73.6%
inhibition in vivo at 30 mg/kg [31]: 63.4%
Activity [32]: 18.1%
Activity [33]: 10.2%
Activity [34]: Toxic
Activity [35]: Dose-dependent-effect
Activity [36]: 37.8%
Activity [37]: Non-toxic
Activity [38]: 41.1%
viability at 10 µM [39]: 58.8%
Activity [40]: Non-toxic
viability at 2.5 µM [41]: 73.6%
Activity [42]: 23.1%
Activity [43]: 0.38%
IC50 [44]: 1.54 µM
Activity [45]: Non-toxic
Activity [46]: 37.8%
IC50 at 72 h [47]: 19 µM
Activity [48]: Toxic
inhibition of growth at 10 µM [49]: 99.5%
selectivity ratio [50]: 13.3
